# ChEMBL document CHEMBL1201862, “PubChem BioAssay data set” (2004)
#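 Five compound concentrations were applied to cells in 96-well plates for 48 hours; endpoints were derived by simple linear interpolation of the resulting dose-response curve. At the GI50, growth is halved.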 Active and inactive are the calls of the source. Cut-off read from the data, not from the text of the source: active = GI50 up to about 1.1 µM and inactive = higher.
# Experiments:
# Test in all cases: DTP human tumour cell line panel, 48 h
# [1] = tested on: 786-0
# [2] = tested on: A498
# [3] = tested on: A549
# [4] = tested on: ACHN
# [5] = tested on: CAKI-1
# [6] = tested on: CCRF-CEM
# [7] = tested on: COLO 205
# [8] = tested on: DLD-1
# [9] = tested on: DMS-114
# [10] = tested on: DMS-273
# [11] = tested on: EKVX
# [12] = tested on: HCC 2998
# [13] = tested on: HCT-116
# [14] = tested on: HCT-15
# [15] = tested on: HL-60
# [16] = tested on: HOP-18
# [17] = tested on: HOP-62
# [18] = tested on: HOP-92
# [19] = tested on: HT-29
# [20] = tested on: IGROV-1
# [21] = tested on: K562
# [22] = tested on: KM-20L2
# [23] = tested on: KM12
# [24] = tested on: LOX IMVI
# [25] = tested on: LXFL 529
# [26] = tested on: M14
# [27] = tested on: M19-MEL
# [28] = tested on: MOLT-4
# [29] = tested on: Malme-3M
# [30] = tested on: NCI-H226
# [31] = tested on: NCI-H23
# [32] = tested on: NCI-H460
# [33] = tested on: OVCAR-3
# [34] = tested on: OVCAR-4
# [35] = tested on: OVCAR-5
# [36] = tested on: OVCAR-8
# [37] = tested on: RPMI-8226
# [38] = tested on: RXF 393
# [39] = tested on: RXF 631
# [40] = tested on: SF-268
# [41] = tested on: SF-295
# [42] = tested on: SF-539
# [43] = tested on: SK-MEL-28
# [44] = tested on: SK-MEL-2
# [45] = tested on: SK-MEL-5
# [46] = tested on: SK-OV-3
# [47] = tested on: SN12C
# [48] = tested on: SNB-75
# [49] = tested on: SR
# [50] = tested on: SW-620
# [51] = tested on: TK-10
# [52] = tested on: U-251
# [53] = tested on: UACC-257
# [54] = tested on: UACC-62
# [55] = tested on: UO-31
# [56] = tested on: XF498
# [57] = tested on: NCI-H522
# [58] = tested on: SNB-19
compound,measurement,setting,value
N#CC1=C(c2ccccc2)C(O)(c2ccccc2)NC1=O (configuration not stated),GI50,[1],> 100 µM (inactive)
same,GI50,[2],24.6 µM (inactive)
same,GI50,[3],> 100 µM (inactive)
same,GI50,[4],37.5 µM (inactive)
same,GI50,[5],> 100 µM (inactive)
same,GI50,[6],70.5 µM (inactive)
same,GI50,[7],> 100 µM (inactive)
same,GI50,[8],71.3 µM (inactive)
same,GI50,[9],> 100 µM (inactive)
same,GI50,[10],> 100 µM (inactive)
same,GI50,[11],> 100 µM (inactive)
same,GI50,[12],> 100 µM (inactive)
same,GI50,[13],> 100 µM (inactive)
same,GI50,[14],> 100 µM
same,GI50,[15],> 100 µM (inactive)
same,GI50,[16],31.7 µM (inactive)
same,GI50,[17],> 100 µM (inactive)
same,GI50,[18],19.5 µM (inactive)
same,GI50,[19],41.1 µM (inactive)
same,GI50,[20],> 100 µM (inactive)
same,GI50,[21],> 100 µM (inactive)
same,GI50,[22],47.5 µM (inactive)
same,GI50,[23],> 100 µM (inactive)
same,GI50,[24],> 100 µM (inactive)
same,GI50,[25],> 100 µM (inactive)
same,GI50,[26],52.4 µM (inactive)
same,GI50,[27],> 100 µM (inactive)
same,GI50,[28],> 100 µM (inactive)
same,GI50,[29],25.2 µM (inactive)
same,GI50,[30],51.5 µM (inactive)
same,GI50,[31],42 µM (inactive)
same,GI50,[32],58.3 µM (inactive)
same,GI50,[33],> 100 µM (inactive)
same,GI50,[34],> 100 µM (inactive)
same,GI50,[35],39.3 µM (inactive)
same,GI50,[36],> 100 µM (inactive)
same,GI50,[37],75 µM (inactive)
same,GI50,[38],> 100 µM (inactive)
same,GI50,[39],99.8 µM (inactive)
same,GI50,[40],> 100 µM (inactive)
same,GI50,[41],37.4 µM (inactive)
same,GI50,[42],27.7 µM (inactive)
same,GI50,[43],> 100 µM (inactive)
same,GI50,[44],99.1 µM (inactive)
same,GI50,[45],68.1 µM (inactive)
same,GI50,[46],32.7 µM (inactive)
same,GI50,[47],48.3 µM (inactive)
same,GI50,[48],> 100 µM (inactive)
same,GI50,[49],44.2 µM (inactive)
same,GI50,[50],> 100 µM (inactive)
same,GI50,[51],> 100 µM (inactive)
same,GI50,[52],> 100 µM (inactive)
same,GI50,[53],> 100 µM (inactive)
same,GI50,[54],> 100 µM (inactive)
same,GI50,[55],82.8 µM (inactive)
same,GI50,[56],> 100 µM (inactive)
CC(C)=CC(C(O)c1ccccc1)S(=O)(=O)c1nccn1C (configuration not stated),GI50,[1],> 100 µM (inactive)
same,GI50,[3],> 100 µM (inactive)
same,GI50,[4],> 100 µM (inactive)
same,GI50,[6],> 100 µM (inactive)
same,GI50,[7],> 100 µM (inactive)
same,GI50,[8],> 100 µM (inactive)
same,GI50,[9],> 100 µM (inactive)
same,GI50,[10],> 100 µM (inactive)
same,GI50,[11],> 100 µM (inactive)
same,GI50,[12],> 100 µM (inactive)
same,GI50,[13],> 100 µM (inactive)
same,GI50,[14],> 100 µM
same,GI50,[15],> 100 µM (inactive)
same,GI50,[16],> 100 µM (inactive)
same,GI50,[17],> 100 µM (inactive)
same,GI50,[18],> 100 µM (inactive)
same,GI50,[19],> 100 µM (inactive)
same,GI50,[20],> 100 µM (inactive)
same,GI50,[21],> 100 µM (inactive)
same,GI50,[22],> 100 µM (inactive)
same,GI50,[23],> 100 µM (inactive)
same,GI50,[24],> 100 µM (inactive)
same,GI50,[25],> 100 µM (inactive)
same,GI50,[26],> 100 µM (inactive)
same,GI50,[27],> 100 µM (inactive)
same,GI50,[28],> 100 µM (inactive)
same,GI50,[29],> 100 µM (inactive)
same,GI50,[30],> 100 µM (inactive)
same,GI50,[31],> 100 µM (inactive)
same,GI50,[32],> 100 µM (inactive)
same,GI50,[57],> 100 µM (inactive)
same,GI50,[33],> 100 µM (inactive)
same,GI50,[34],> 100 µM (inactive)
same,GI50,[35],> 100 µM (inactive)
same,GI50,[36],> 100 µM (inactive)
same,GI50,[37],> 100 µM (inactive)
same,GI50,[38],> 100 µM (inactive)
same,GI50,[39],> 100 µM (inactive)
same,GI50,[40],> 100 µM (inactive)
same,GI50,[41],> 100 µM (inactive)
same,GI50,[42],> 100 µM (inactive)
same,GI50,[43],> 100 µM (inactive)
same,GI50,[44],> 100 µM (inactive)
same,GI50,[45],> 100 µM (inactive)
same,GI50,[46],> 100 µM (inactive)
same,GI50,[47],> 100 µM (inactive)
same,GI50,[58],> 100 µM (inactive)
same,GI50,[48],> 100 µM (inactive)
same,GI50,[49],> 100 µM (inactive)
same,GI50,[50],> 100 µM (inactive)
same,GI50,[51],> 100 µM (inactive)
same,GI50,[52],> 100 µM (inactive)
same,GI50,[53],> 100 µM (inactive)
same,GI50,[54],> 100 µM (inactive)
same,GI50,[55],> 100 µM (inactive)
same,GI50,[56],> 100 µM (inactive)
